Experimental data as given in ChEMBL document CHEMBL6083252, “Synthesis and evaluation of novel tetrahydroisoquinoline-benzo[h]chromen-4-one conjugates as dual ABCB1/CYP1B1 inhibitors for overcoming MDR in cancer” (Bioorg Med Chem, 2024).
Active and inactive are the calls of the source. No cut-off for these calls is given here.

How the values were obtained:
SW620/AD300 [1] = assay: Reversal of multidrug resistance in human SW620/AD300 cells assessed as reversal fold by measuring ratio of doxorubicin IC50 to doxorubicin IC50 in presence of test compound at 5 uM; type: functional
DU-145 = assay: Cytotoxicity against human DU-145 cells assessed as inhibition of cell growth at 5 uM incubated for 48 hrs by CCK8 assay; type: functional, cell-based
SW620/AD300 [2] = assay: Downregulation of P-gp expression in human SW620/AD300 cells at 10 uM incubated for 24 hrs by immunofluorescence assay; type: functional, cell-based
SW620/AD300 [3] = assay: Reversal of multidrug resistance in human SW620/AD300 cells assessed as decrease in doxorubicin IC50 at 5 uM in presence of doxorubicin (reference value: 11.10 +/- 1.61 uM); type: functional, cell-based
SW620/AD300 [4] = assay: Downregulation of P-gp expression in human SW620/AD300 cells upto 30 uM incubated for 24 hrs by Western blotting assay; type: functional, cell-based
SW620/AD300 [5] = assay: Cytotoxicity against human SW620/AD300 cells assessed as inhibition of cell growth at 5 uM incubated for 48 hrs by CCK8 assay; type: functional; design: scale not given: the % may be the effect or the level left
SW-620 = assay: Cytotoxicity against human SW620 cells assessed as inhibition of cell growth at 5 uM incubated for 48 hrs by CCK8 assay; type: functional; design: scale not given: the % may be the effect or the level left
[6] = Reversal of docetaxel resistance in human DU-145 cells transfected with CYP1B1 assessed as decrease in docetaxel IC50 at 5 uM (reference value: 23.5 +/- 3.04 nM); type: functional, cell-based
[7] = Induction of apoptosis in human MKN45-DDP-R cells assessed as early apoptotic cells at 6 uM incubated for 48 hrs by Annexin V-FITC/PI staining based flow cytometry analysis (reference value: 3.70%); type: functional, MKN45-DDP-R (Cisplatin-resistant MKN45 cells)
[8] = Induction of apoptosis in human MKN45-DDP-R cells assessed as early apoptotic cells at 3 uM incubated for 48 hrs by Annexin V-FITC/PI staining based flow cytometry analysis (reference value: 3.70%); type: functional, MKN45-DDP-R (Cisplatin-resistant MKN45 cells)
[9] = test system: MKN45-DDP-R (Cisplatin-resistant MKN45 cells); assay: Upregulation of PUMA expression level in human MKN45-DDP-R cells at 6 to 12 uM incubated for 48 hrs by Western blotting assay; type: functional, cell-based; conditions: dose 6-12 µM
SW620/AD300 [10] = assay: Effect on P-gp protein expression in human SW620/AD300 cells at 5 to 30 uM by Western blotting assay; type: functional, cell-based; conditions: dose 5-30 µM
[11] = test system: MKN45-DDP-R (Cisplatin-resistant MKN45 cells); assay: Inhibition of cell migration in human MKN45-DDP-R cells at over 1 uM incubated for 24 hrs by scratch wound healing based inverted microscopic analysis; type: functional
[12] = Induction of apoptosis in human MKN45-DDP-R cells assessed as necrotic cells at 6 uM incubated for 48 hrs by Annexin V-FITC/PI staining based flow cytometry analysis (reference value: 0.76%); type: functional, MKN45-DDP-R (Cisplatin-resistant MKN45 cells)
SW620/AD300 [13] = assay: Effect on P-gp protein expression in human SW620/AD300 cells at 5 uM incubated for 24 hrs by immunofluorescence assay; type: functional, cell-based
[14] = Cytotoxicity against human MKN45-DDP-R cells assessed as inhibition of cell growth incubated for 48 hrs by CCK8 assay; type: functional, cell-based; conditions: MKN45-DDP-R (Cisplatin-resistant MKN45 cells)
[15] = Induction of apoptosis in human MKN45-DDP-R cells assessed as late apoptotic cells at 3 uM incubated for 48 hrs by Annexin V-FITC/PI staining based flow cytometry analysis (reference value: 0.89%); type: functional, MKN45-DDP-R (Cisplatin-resistant MKN45 cells)
SW620/AD300 [16] = assay: Cytotoxicity against human SW620/AD300 cells assessed as inhibition of cell growth incubated for 48 hrs by CCK8 assay; type: functional, cell-based; conditions: SW620/AD300, 48 h
[17] = test system: MKN45-DDP-R (Cisplatin-resistant MKN45 cells); assay: Inhibition of colony formation in human MKN45-DDP-R cells assessed as decrease in colony number incubated for 48 hrs followed by media replacement and cultured for 12 days by crystal violet staining based assay; type: functional, cell-based; conditions: dose 1-3 µM
[18] = test system: MKN45-DDP-R (Cisplatin-resistant MKN45 cells); assay: Inhibition of colony formation in human MKN45-DDP-R cells assessed as decrease in colony size incubated for 48 hrs followed by media replacement and cultured for 12 days by crystal violet staining based assay; type: functional, cell-based; conditions: dose 1-3 µM
[19] = Induction of apoptosis in human MKN45-DDP-R cells assessed as viable cells at 6 uM incubated for 48 hrs by Annexin V-FITC/PI staining based flow cytometry analysis (reference value: 94.7%); type: functional; conditions: MKN45-DDP-R (Cisplatin-resistant MKN45 cells), read-out: Activity
[20] = test system: MKN45-DDP-R (Cisplatin-resistant MKN45 cells); assay: Effect on lipid peroxidation level in human MKN45-DDP-R cells at 10 uM incubated for 24 hrs by BODIPY 581/591 C11 probe based flow cytometry assay; type: functional, cell-based
[21] = Induction of apoptosis in human MKN45-DDP-R cells assessed as necrotic cells at 3 uM incubated for 48 hrs by Annexin V-FITC/PI staining based flow cytometry analysis (reference value: 0.76%); type: functional, MKN45-DDP-R (Cisplatin-resistant MKN45 cells)
[22] = Induction of apoptosis in human MKN45-DDP-R cells assessed as late apoptotic cells at 6 uM incubated for 48 hrs by Annexin V-FITC/PI staining based flow cytometry analysis (reference value: 0.89%); type: functional, MKN45-DDP-R (Cisplatin-resistant MKN45 cells)
[23] = Induction of apoptosis in human MKN45-DDP-R cells assessed as viable cells at 3 uM incubated for 48 hrs by Annexin V-FITC/PI staining based flow cytometry analysis (reference value: 94.7%); type: functional; conditions: MKN45-DDP-R (Cisplatin-resistant MKN45 cells), read-out: Activity
[24] = Cytotoxicity against human DOX-SW620/AD300-1B1 cells assessed as inhibition of cell growth incubated for 48 hrs by CCK8 assay; type: functional, cell-based; conditions: DOX-SW620/AD300-1B1, 48 h
[25] = test system: MKN45-DDP-R (Cisplatin-resistant MKN45 cells); assay: Reversal of cisplatin resistance in human MKN45-DDP-R cells expressing CYP1B1 at 5 uM in presence of cisplatin; type: functional, cell-based

SMILES | Ratio IC50 (SW620/AD300 [1]) | Activity (DU-145) | IC50 (SW620/AD300 [3]) [nM] | Activity (SW620/AD300 [5]) [%] | Activity (SW-620) [%] | IC50 [6] [nM] | further results
COc1cc2c(cc1OC)CN(CCc1ccc(NC(=O)c3ccccc3NC(=O)c3cc(=O)c4ccc5ccccc5c4o3)cc1)CC2 | 34.7 | Active; Lower Cytotoxicity Than Anf And Wk-X-34 | 320 | 7.13 | 13.34 | 9.6 | Activity (SW620/AD300 [2]): inactive; Activity (SW620/AD300 [4]): inactive
COc1cc2c(cc1OC)CN(C(=O)C1CCN(C(=O)c3cc(=O)c4cc(OC)c5ccccc5c4o3)CC1)CC2 | 5 |  | 2200 | 4.05 | 13.03 |  | 
COc1cc2c(cc1OC)CN(CCNC(=O)c1cc(=O)c3ccc4ccccc4c3o1)CC2 | 2.1 |  | 5250 | 55.04 | 51.29 |  | Activity [7]: 34.9%; Activity [8]: 15%; Activity [9]: Active; Activity (SW620/AD300 [10]): inactive; inhibition [11]: Active; Activity [12]: 0.73%; Activity (SW620/AD300 [13]): inactive; IC50 [14]: 6580 nM; Activity [15]: 3.37%; IC50 (SW620/AD300 [16]): 9100 nM; inhibition [17]: Dose-dependent-effect; inhibition [18]: Dose-dependent-effect; viability at 6 µM [19]: 58%; Activity [20]: inactive; Activity [21]: 0.58%; Activity [22]: 6.41%; viability at 3 µM [23]: 81.1%
COc1cc2c(cc1OC)CN(C(=O)C1CCN(C(=O)c3cc(=O)c4ccc5ccccc5c4o3)CC1)CC2 | 13.2 |  | 840 | 14.46 | 26.93 |  | 
COc1cc2c(cc1OC)CN(C(=O)c1cc(=O)c3cc(OC)c4ccccc4c3o1)CC2 | 1.4 | Active; Lower Cytotoxicity Than Anf And Wk-X-35 | 7480 | 3.49 | 4.62 | 11.4 | 
COc1cccc2c1C(=O)c1c(O)c3c(c(O)c1C2=O)C[C@@](O)(C(=O)CO)C[C@@H]3O[C@H]1C[C@H](N)[C@H](O)[C@H](C)O1 [DOXORUBICIN] |  |  |  |  | 0.29 |  | IC50 (SW620/AD300 [16]): 11100 nM; IC50 [24]: 64500 nM
COc1cc2c(cc1OC)CN(C(=O)Cn1cc(-c3ccc(-c4cc(=O)c5ccc6ccccc6c5o4)cc3)nn1)CC2 | 4.8 | Active; Lower Cytotoxicity Than Anf And Wk-X-37 | 2290 | 26.85 | 22.19 | 3.41 | Activity [25]: Active
